Experimental data: US4920103A, “Modifications of mycinose and 3-O-demethylmycinose in tylosin-type macrolides” (Eli Lilly and Company, priority 1986, dated 1990)
In brackets after ≈: the same amount, converted by molar mass. Several values for one entry are separate records, joined by “and”; a condition that tells them apart may be missing. Identical values can stand only once. Like-named read-outs stand apart in the source and are kept apart here.

How the values were obtained:
[1] = system: Staphylococcus aureus X1.1; test: MIC, standard agar-dilution assay, S. aureus X1.1; format: cell-based
Protocol: (§1) The MIC's in Table II were determined by standard agar-dilution assays. The MIC's in Table III were obtained using conventional broth-dilution microtiter tests.

[2] = system: Haemophilus influenzae C.L.; test: MIC, standard agar-dilution assay, H. influenzae C.L.; format: cell-based
Protocol: as §1

Escherichia coli EC14 = test: MIC, standard agar-dilution assay, E. coli EC14; format: cell-based; conditions: agar-dilution, read-out: MIC
Protocol: as §1

[3] = system: Pasteurella hemolytica 41D; test: MIC, broth-dilution microtiter test, P. hemolytica 41D; format: cell-based; conditions: broth-dilution microtiter, read-out: MIC
Protocol: as §1

[4] = system: Pasteurella multocida 22A; test: MIC, broth-dilution microtiter test, P. multocida 22A; format: cell-based; conditions: broth-dilution microtiter, read-out: MIC
Protocol: as §1

[5] = system: Pasteurella multocida 40G; test: MIC, broth-dilution microtiter test, P. multocida 40G; format: cell-based
Protocol: as §1

[6] = system: Pasteurella hemolytica 23C; test: MIC, broth-dilution microtiter test, P. hemolytica 23C; format: cell-based; conditions: broth-dilution microtiter, read-out: MIC
Protocol: as §1

[7] = system: Staphylococcus aureus X400; test: MIC, standard agar-dilution assay, S. aureus X400; format: cell-based
Protocol: as §1

Streptococcus sp. 19F = test: MIC, broth-dilution microtiter test, Streptococcus sp. 19F; format: cell-based
Protocol: as §1

[8] = system: Pasteurella multocida 17E; test: MIC, broth-dilution microtiter test, P. multocida 17E; format: cell-based
Protocol: as §1

[9] = system: Pasteurella hemolytica 22C; test: MIC, broth-dilution microtiter test, P. hemolytica 22C; format: cell-based; conditions: broth-dilution microtiter, read-out: MIC
Protocol: as §1

[10] = system: Bordetella bronchiseptica; test: MIC, broth-dilution microtiter test, B. bronchiseptica; format: cell-based; conditions: broth-dilution microtiter, read-out: MIC
Protocol: as §1

[11] = system: Staphylococcus aureus S13E; test: MIC, standard agar-dilution assay, S. aureus S13E; format: cell-based
Protocol: as §1

[12] = system: Streptococcus Group D X66; test: MIC, standard agar-dilution assay, Streptococcus Group D X66; format: cell-based
Protocol: as §1

[13] = system: Streptococcus pyogenes C203; test: MIC, standard agar-dilution assay, S. pyogenes C203; format: cell-based
Protocol: as §1

[14] = system: Mycoplasma gallisepticum 15E; test: MIC, broth-dilution microtiter test, M. gallisepticum 15E; format: cell-based; conditions: Mycoplasmoides gallisepticum, broth-dilution microtiter, read-out: MIC
Protocol: as §1

[15] = system: Mycoplasma gallisepticum 36H; test: MIC, broth-dilution microtiter test, M. gallisepticum 36H; format: cell-based; conditions: Mycoplasmoides gallisepticum
Protocol: as §1

[16] = system: Staphylococcus epidermidis EPI1; test: MIC, standard agar-dilution assay, S. epidermidis EPI1; format: cell-based
Protocol: as §1

[17] = system: Streptococcus pneumoniae Park I; test: MIC, standard agar-dilution assay, S. pneumoniae Park I; format: cell-based
Protocol: as §1

[18] = system: Staphylococcus epidermidis 222; test: MIC, standard agar-dilution assay, S. epidermidis 222; format: cell-based
Protocol: as §1

[19] = system: Klebsiella pneumoniae X68; test: MIC, standard agar-dilution assay, K. pneumoniae X68; format: cell-based; conditions: agar-dilution, read-out: MIC
Protocol: as §1

[20] = system: Staphylococcus aureus V41; test: MIC, standard agar-dilution assay, S. aureus V41; format: cell-based
Protocol: as §1

[21] = system: Mycoplasma gallisepticum 29C; test: MIC, broth-dilution microtiter test, M. gallisepticum 29C; format: cell-based; conditions: Mycoplasmoides gallisepticum
Protocol: as §1

[22] = system: Streptococcus Group D 2041; test: MIC, standard agar-dilution assay, Streptococcus Group D 2041; format: cell-based
Protocol: as §1

[23] = system: Pseudomonas aeruginosa X239; test: MIC, standard agar-dilution assay, P. aeruginosa X239; format: cell-based; conditions: agar-dilution, read-out: MIC
Protocol: as §1

Staphylococcus aureus = test: MIC, broth-dilution microtiter test, S. aureus; format: cell-based
Protocol: as §1

[24] = system: Pasteurella multocida 68C; test: MIC, broth-dilution microtiter test, P. multocida 68C; format: cell-based
Protocol: as §1

[25] = system: Streptococcus pyogenes C203; test: Protection of mice experimentally infected with Streptococcus pyogenes C203; format: in vivo; conditions: doses given 1 and 4 hours postinfection
Protocol: The formula 1 compounds have shown in vivo antimicrobial activity against experimentally-induced infections in laboratory animals. When two doses of test compound were administered to mice experimentally infected with Streptococcus pyogenes C203, the activity observed was measured as an ED50 value [effective dose in mg/kg to protect 50% of the test animals: see Warren Wick, et al., J. Bacteriol. 81, 233-235 (1961)].
^a mg/kg × 2; doses given 1 and 4 hours postinfection

[26] = system: Haemophilus influenzae 76; test: MIC, standard agar-dilution assay, H. influenzae 76; format: cell-based
Protocol: as §1

[27] = system: Pasteurella multocida 60A; test: MIC, broth-dilution microtiter test, P. multocida 60A; format: cell-based; conditions: broth-dilution microtiter, avian isolate, read-out: MIC
Protocol: as §1

[28] = system: Mycoplasma hyopneumoniae S5972; test: MIC, broth-dilution microtiter test, M. hyopneumoniae S5972; format: cell-based; conditions: broth-dilution microtiter
Protocol: as §1

Mycoplasma synoviae 40A = test: MIC, broth-dilution microtiter test, M. synoviae 40A; format: cell-based; conditions: broth-dilution microtiter
Protocol: as §1

Mycoplasma hyorhinis 29E = test: MIC, broth-dilution microtiter test, M. hyorhinis 29E; format: cell-based; conditions: broth-dilution microtiter
Protocol: as §1

[29] = broth-dilution microtiter, read-out: MIC
[30] = Streptococcus pyogenes, C203, oral, read-out: ED50
[31] = Streptococcus pyogenes, C203, sc, subcutaneous, read-out: ED50
[32] = Mesomycoplasma hyopneumoniae, S5972, read-out: MIC

| Compound | MIC [1] | MIC [2] | MIC (Escherichia coli EC14) | MIC [3] | MIC [4] | MIC [6] | MIC [7] | MIC [9] | MIC [10] | MIC [11] | MIC [12] | MIC ([13]; Streptococcus pyogenes, C203) | MIC [14] | MIC [16] | MIC [18] | MIC [19] | MIC ([20]; Staphylococcus aureus, V41) | MIC [23] | ED50 [25, 30] | ED50 [25, 31] | other results |
| --- | --- | --- | --- | --- | --- | --- | --- | --- | --- | --- | --- | --- | --- | --- | --- | --- | --- | --- | --- | --- | --- |
| CCC1OC(=O)CC(O)C(C)C(OC2OC(C)C(O)C(N(C)C)C2O)C(CCOc2ccccc2)CC(C)C(=O)C=CC(C)=CC1COC1OC(C)C(N)C(OC)C1OC (stereo not drawn) [Compound 21, 4"-Amino-4"-deoxy-20-DH-20-O-phenyl-desmycosin] | 0.25 µg/mL (≈ 0.294 µM) | 32 µg/mL (≈ 37.7 µM) | > 128 µg/mL | 12.5 µg/mL (≈ 14.7 µM) | 12.5 µg/mL (≈ 14.7 µM) | 25 µg/mL (≈ 29.4 µM) | 0.25 µg/mL (≈ 0.294 µM) | 25 µg/mL (≈ 29.4 µM) | > 50 µg/mL | 0.25 µg/mL (≈ 0.294 µM) | 4 µg/mL (≈ 4.71 µM) | 0.5 µg/mL (≈ 0.589 µM) | > 50 µg/mL | 0.5 µg/mL (≈ 0.589 µM) | 0.25 µg/mL (≈ 0.294 µM) | > 128 µg/mL | 0.5 µg/mL (≈ 0.589 µM) | > 128 µg/mL | 57.4 mg/kg | > 10 mg/kg | MIC [5, 29]: 6.25 µg/mL (≈ 7.36 µM); MIC (Streptococcus sp. 19F; Streptococcus, SP.19F, broth-dilution microtiter, read-out: MIC): 3.12 µg/mL (≈ 3.67 µM); MIC ([8]; Pasteurella multocida, 17E, broth-dilution microtiter, bovine isolate, read-out: MIC): 25 µg/mL (≈ 29.4 µM); MIC [15, 29]: > 50 µg/mL; MIC ([17]; Streptococcus pneumoniae, agar-dilution, read-out: MIC): 1 µg/mL (≈ 1.18 µM); MIC [21, 29]: 1.56 µg/mL (≈ 1.84 µM); MIC ([22]; GROUPD2041, agar-dilution, read-out: MIC): 8 µg/mL (≈ 9.42 µM); MIC (Staphylococcus aureus): 0.39 µg/mL (≈ 0.459 µM); MIC [24, 29]: 12.5 µg/mL (≈ 14.7 µM); MIC [26]: 16 µg/mL (≈ 18.8 µM); MIC [27]: 12.5 µg/mL (≈ 14.7 µM); MIC [28, 32]: 50 µg/mL (≈ 58.9 µM) |
| CCC1OC(=O)CC(O)C(C)C(OC2OC(C)C(O)C(N(C)C)C2O)C(CCOc2ccccc2)CC(C)C(=O)C=CC(C)=CC1COC1OC(C)C(OC)C(OC)C1OC (stereo not drawn) [Compound 13, 4"-O-Methyl-20-DH-20-O-phenyl-desmycosin] |  |  |  |  |  |  |  |  |  |  |  |  |  |  |  |  |  |  |  |  | MIC (Mycoplasma synoviae 40A): 6.25 µg/mL (≈ 7.23 µM); MIC (Mycoplasma hyorhinis 29E): 25 µg/mL (≈ 28.9 µM); MIC (Streptococcus sp. 19F; broth-dilution microtiter): 6.25 µg/mL (≈ 7.23 µM); MIC ([8]; broth-dilution microtiter, bovine isolate): -- (not active at 50 mcg/mL); MIC ([12]; agar-dilution): 16 µg/mL (≈ 18.5 µM); MIC ([13]; agar-dilution): 4 µg/mL (≈ 4.63 µM); MIC ([17]; agar-dilution): 4 µg/mL (≈ 4.63 µM); MIC ([20]; agar-dilution, penicillin-resistant strain): 2 µg/mL (≈ 2.31 µM); MIC ([22]; agar-dilution): 16 µg/mL (≈ 18.5 µM); ED50 ([25]; oral): 18.8 mg/kg × 2 and 22.4 mg/kg × 2; ED50 ([25]; subcutaneous): > 10 mg/kg × 2; MIC [28]: > 25 µg/mL |
| CCC1OC(=O)CC(O)C(C)C(OC2OC(C)C(O)C(N(C)C)C2O)C(CCOc2ccccc2)CC(C)C(=O)C=CC(C)=CC1COC1OC(C)C(=O)C(OC)C1OC (stereo not drawn) [Compound 2, 4"-Oxo-20-DH-20-O-phenyl-desmycosin] | 0.5 µg/mL (≈ 0.59 µM) | 64 µg/mL (≈ 75.5 µM) | > 128 µg/mL |  |  |  | 0.5 µg/mL (≈ 0.59 µM) |  |  | 0.5 µg/mL (≈ 0.59 µM) | 4 µg/mL (≈ 4.72 µM) | 2 µg/mL (≈ 2.36 µM) |  | 1 µg/mL (≈ 1.18 µM) | 0.25 µg/mL (≈ 0.295 µM) | > 128 µg/mL | 0.5 µg/mL (≈ 0.59 µM) | > 128 µg/mL | 85.6 mg/kg | > 10 mg/kg | MIC ([17]; Streptococcus pneumoniae): 4 µg/mL (≈ 4.72 µM); MIC ([22]; GROUPD2041): 8 µg/mL (≈ 9.43 µM); MIC [26]: 64 µg/mL (≈ 75.5 µM) |
| CCC1OC(=O)CC(O)C(C)C(OC2OC(C)C(O)C(N(C)C)C2O)C(CCOc2ccccc2)CC(C)C(=O)C=CC(C)=CC1COC1OC(C)C(=NO)C(OC)C1OC (stereo not drawn) [Compound 4, 4"-O-Hydroxyimino-20-DH-20-O-phenyl-desmycosin] | 0.5 µg/mL (≈ 0.579 µM) |  | > 128 µg/mL | > 50 µg/mL | > 50 µg/mL | > 50 µg/mL | 1 µg/mL (≈ 1.16 µM) | > 50 µg/mL | > 50 µg/mL | 1 µg/mL (≈ 1.16 µM) | 2 µg/mL (≈ 2.32 µM) | 2 µg/mL (≈ 2.32 µM) | 25 µg/mL (≈ 29 µM) | 1 µg/mL (≈ 1.16 µM) | 0.5 µg/mL (≈ 0.579 µM) | > 128 µg/mL | 1 µg/mL (≈ 1.16 µM) | > 128 µg/mL | 39.6 mg/kg | > 10 mg/kg | MIC ([2]; agar-dilution, ampicillin-sensitive strain, read-out: MIC): > 128 µg/mL; MIC [5]: 50 µg/mL (≈ 57.9 µM); MIC (Streptococcus sp. 19F; Streptococcus, SP.19F): 0.78 µg/mL (≈ 0.904 µM); MIC ([8]; Pasteurella multocida, 17E): 50 µg/mL (≈ 57.9 µM); MIC [15]: 50 µg/mL (≈ 57.9 µM); MIC ([17]; Streptococcus pneumoniae): 2 µg/mL (≈ 2.32 µM); MIC [21]: 1.56 µg/mL (≈ 1.81 µM); MIC ([22]; GROUPD2041): 4 µg/mL (≈ 4.63 µM); MIC (Staphylococcus aureus): 1.56 µg/mL (≈ 1.81 µM); MIC [24]: 50 µg/mL (≈ 57.9 µM); MIC ([26]; agar-dilution, ampicillin-resistant strain, read-out: MIC): > 128 µg/mL; MIC [27]: > 50 µg/mL; MIC [28, 32]: > 50 µg/mL |
